Experimental data taken from patent US20110039825A1, “LIGANDS OF ALPHA-ADRENOCEPTORS, DOPAMINE, HISTAMINE, IMIDAZOLINE AND SEROTONIN RECEPTORS AND THEIR USE” (Alla Chem, LLC, priority 2007, published 2011).

How the values were obtained:
male mice of BALB/c line [1] = test: Mice Behavior in the Elevated Plus Maze; assay type: in vivo; details: doses of 0.05 and 0.1 mg/kg
Text: The length of each arm of the maze was 30 cm, width is 5 cm, and height of the walls was 15 cm. Two opposite arms were closed from both sides and end faces by transparent walls, the other two arms were lit and opened. A mouse was placed in the center of the maze and for the next five minutes the number of entries into opened and closed arms and the time spent in each type of arms was registered. […] The animals usually avoided opened arms (the preference index is between 0.2 and 0.3). Compounds with tranquilizing action increased this index up to 0.5-0.6 or even more and reduced the number of defecations without changing the overall motion activity of the mice (the total number of their entries to the arms).

mice = test: Mice Training in Morris Water Maze (Scopolamine); assay type: in vivo; details: unitary introduction of active ingredient
Description: Mice Training in Morris Water Maze. A round pool which was filled with water at 20-22° C. was used. A round ceramic platform of 14 cm height was placed in the pool. Animals's behavior was registered with automated computer videosystem in combination with software package of movement analysis Any-maze (Stoelting Co., US). Before testing mice suitable for training were selected. That was done by placing the platform 1 cm above the water level and putting an animal on the platform for 20 seconds. Then the mouse was sunk into the water on the opposite side of the pool, allowed to find the platform and climbed it within 60 seconds, where it was left for additional 20 seconds. After that the mouse was repeatedly immersed into water on the opposite side of the pool and allowed to look for platform. If it failed in finding the platform within 60 seconds the experimentator helped it to find the platform and climb it. If the mice could not find the platform itself in two consecutive attempts it was excluded from experiment.
During the next two days the platform was placed 0.5 centimeter lower the water level. Every day the mice were given four attempts for finding the platform within 60 seconds. The time interval between the attempts was 20 seconds, during which the mice stayed on the platform. Every day before the first attempt mouse was placed on the platform for 20 seconds. The time needed for finding and climbing the platform was registered. The animals were sunk in water in 3 different places on the side of the pool opposite to platform. On each day of two-day testing 35-40 minutes before the beginning of training the mice were injected intraintestinally with physiological solution, Scopolamine or Scopolamine in combination with investigated compound. At least 8 animals were used in each group.
On the third day the platform was removed and each animal was placed one time in the pool for a period of 60 seconds. The time each mouse spent in the area where the platform had been located during the previous days was registered. This time interval was regarded as a measure of effectiveness of training fulfilled during the previous two days. The testing was carried out during the day time in isolated laboratory using “white noise” at level of about 70 decibel above the human hearing threshold.

male mice of BALB/c line [2] = test: Passive Avoidance of mice in the Shuttle Chamber, memory disturbed by Scopolamine; assay type: in vivo; details: Scopolamine 0.3 mg/kg
Description: A shuttle chamber (Ugo Basile, Italy) consisted of two sections was used. […] The sections were connected through a hole which could be overlapped by a vertical door. The floor was made of transverse metal bars on which DC current impulses could be fed. Experiments were carried out in aged male mice of BALB/c line weighing 20-24 grams.
Each group consisted of at least 8 animals. Animal was placed in light section, and latent period of the first entry into dark chamber was registered. Then the vertical door was closed and the animal was punished by 0.6 mA DC current for 3 seconds. After that it was taken back to its homecage. In 22-24 hours the same animal was placed again in light section of the shuttle chamber and latent period of its first entry into dark section, the total time of its stay in light section, and the number of entries into dark section, were registered. Each monitoring lasted for 5 minutes.
Testing was carried out during the day time in isolated laboratory using white noise at level of about 70 decibel above human hearing threshold.
Scopolamine causes the disturbance of training (memory loss) that results in […].

human α1D receptor = biological target: T1, human α1D receptor (Homo sapiens, UniProt P25100); test: radioligand binding to adrenergic receptor α1D ([3H] Prazosin); details: 10 μM ligand
T1 construct: expressed in transfected cells; host or cells: HEK-293
T1 sequence (P25100 1-572): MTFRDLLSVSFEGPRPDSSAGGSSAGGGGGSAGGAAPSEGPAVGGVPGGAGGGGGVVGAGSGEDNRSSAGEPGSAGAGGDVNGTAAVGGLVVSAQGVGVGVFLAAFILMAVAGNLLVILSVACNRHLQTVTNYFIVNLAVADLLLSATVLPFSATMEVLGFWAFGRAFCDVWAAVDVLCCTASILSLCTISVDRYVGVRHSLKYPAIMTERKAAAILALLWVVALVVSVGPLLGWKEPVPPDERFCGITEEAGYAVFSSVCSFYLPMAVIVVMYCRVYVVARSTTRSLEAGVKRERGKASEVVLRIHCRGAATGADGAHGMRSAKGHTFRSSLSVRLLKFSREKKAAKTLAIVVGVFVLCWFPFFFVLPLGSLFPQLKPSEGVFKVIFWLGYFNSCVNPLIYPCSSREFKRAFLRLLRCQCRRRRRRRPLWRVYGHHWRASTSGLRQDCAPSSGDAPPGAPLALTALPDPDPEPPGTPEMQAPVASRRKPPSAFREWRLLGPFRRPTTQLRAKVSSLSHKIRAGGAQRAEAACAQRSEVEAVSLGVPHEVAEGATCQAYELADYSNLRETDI
Text: 6-C. […] For this purpose sDNA of human α1D receptor is expressed in HEK-293 cells, as it was described in [T L Theroux, T A Esbenshade, R D Peavy and K P Minneman. Coupling efficiencies of human alpha 1-adrenergic receptor subtypes: titration of receptor density and responsiveness with inducible and repressible expression vectors. Mol. Pharmacol.; 50: 1376-1387, 1996]. […] Prazosin is used as positive control.

human H2 receptor = biological target: T2, human H2 receptor (Homo sapiens, UniProt P25021); test: radioligand binding to histamine receptor H2 ([125I] Aminopotentidine); details: 10 μM ligand
T2 construct: expressed in transfected cells; host or cells: CHO-K1
Text: Proc Natl Acad Sci USA. 87(5): 1658-1662, 1990]. […] Proc Natl Acad Sci USA. 87(5): 1658-1662, 1990]. […] Tiotidine is used as positive control.

[3] = biological target: T3, recombinant human 5-HT2B receptor (Homo sapiens, UniProt P41595); test: radioligand binding to serotonin receptor 5-HT2B ([3H] Lysergic acid diethylamide)
T3 construct: expressed in transfected cells; host or cells: CHO-K1

[4] = biological target: T4, recombinant human 5-HT6 receptor (Homo sapiens, UniProt P50406); test: radioligand binding to serotonin receptor 5-HT6 ([3H] Lysergic acid diethylamide)
T4 construct: expressed in transfected cells; host or cells: HeLa
Text: Mol. Pharmacol. 43:320-327, 1993]. […] Methiothepin is used as positive control.

human H1 receptor = biological target: T5, human H1 receptor (Homo sapiens, UniProt P35367); test: radioligand binding to histamine receptor H1 ([3H] Pyrilamine); details: 10 μM ligand
T5 construct: expressed in transfected cells; host or cells: CHO-K1
Text: Biochem Biophys Res Comm. 197(3): 1601-1608, 1993]. […] Biochem Biophys Res Comm. 197(3): 1601-1608, 1993].
Pyrilamine is used as positive control.

imidazoline receptor I2 = test: radioligand binding to imidazoline receptor I2 ([3H] Idazoxan); set-up: species or system rat; details: 10 μM ligand
Description: Determination of investigated compounds' binding to imidazoline I2 receptor is carried out according to the method described in [Brown C M, MacKinnon A C, McGrath J C, Spedding M and Kilpatrick A T, a2-Adrenoceptor subtypes and imidazoline-like binding in the rat brain. Br J. Pharmacol. 99:803-809, 1990]. […] Idazoxan is used as positive control.

[5] = biological target: T6, recombinant human 5-HT2A receptor (Homo sapiens, UniProt P28223); test: radioligand binding to serotonin receptor 5-HT2A ([3H] Ketanserin)
T6 construct: expressed in transfected cells; host or cells: CHO-K1
Description: 9-C. […] J. Neurochem. […] Ketanserin is used as positive control. […] Values of % I is calculated according to the following equation: […]

human 5-HT7 receptor = biological target: T7, human 5-HT7 receptor (Homo sapiens, UniProt P34969); test: radioligand binding to serotonin receptor 5-HT7 ([3H] Lysergic acid diethylamide); details: ligand concentration 1 μM
T7 construct: expressed in transfected cells; host or cells: CHO
Text: For this purpose sDNA of human 5-HT7 receptor is expressed in CHO cells as it was described in [Shen Y, Monsma F J Jr, Metcalf M A, Jose P A, Hamblin M W, and Sibley DR. […] J. Biol. Chem. 1993, 268, 18200-18204]. […] J. Pharmacol. Exp. Ther. 1994, 268:1403-1410]. […] Methiothepin is used as positive control.

T4 sequence (P50406 whole entry): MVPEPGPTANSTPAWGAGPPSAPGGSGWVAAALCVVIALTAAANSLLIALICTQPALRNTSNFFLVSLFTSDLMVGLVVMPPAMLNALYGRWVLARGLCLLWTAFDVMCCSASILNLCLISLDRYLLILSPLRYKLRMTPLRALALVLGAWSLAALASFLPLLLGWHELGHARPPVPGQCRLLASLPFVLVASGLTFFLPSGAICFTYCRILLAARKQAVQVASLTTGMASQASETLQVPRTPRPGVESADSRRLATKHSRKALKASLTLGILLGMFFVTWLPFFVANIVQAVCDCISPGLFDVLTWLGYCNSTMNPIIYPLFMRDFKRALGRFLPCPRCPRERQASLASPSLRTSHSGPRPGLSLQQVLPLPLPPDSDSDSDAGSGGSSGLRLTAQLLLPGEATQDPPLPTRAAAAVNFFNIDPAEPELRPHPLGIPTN
T6 sequence (P28223 whole entry): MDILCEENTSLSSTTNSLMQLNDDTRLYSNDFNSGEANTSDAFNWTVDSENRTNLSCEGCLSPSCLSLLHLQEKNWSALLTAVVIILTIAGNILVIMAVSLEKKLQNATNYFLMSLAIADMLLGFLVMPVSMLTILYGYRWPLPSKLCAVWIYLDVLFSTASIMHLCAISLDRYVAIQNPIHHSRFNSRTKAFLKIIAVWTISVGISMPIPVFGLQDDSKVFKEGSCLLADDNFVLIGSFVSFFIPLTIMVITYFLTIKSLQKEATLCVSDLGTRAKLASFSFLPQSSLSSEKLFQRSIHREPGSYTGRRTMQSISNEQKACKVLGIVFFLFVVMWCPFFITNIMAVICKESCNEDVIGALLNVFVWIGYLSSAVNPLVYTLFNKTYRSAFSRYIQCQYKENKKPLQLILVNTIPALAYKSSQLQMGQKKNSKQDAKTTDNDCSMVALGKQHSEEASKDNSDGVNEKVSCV
T3 sequence (P41595 whole entry): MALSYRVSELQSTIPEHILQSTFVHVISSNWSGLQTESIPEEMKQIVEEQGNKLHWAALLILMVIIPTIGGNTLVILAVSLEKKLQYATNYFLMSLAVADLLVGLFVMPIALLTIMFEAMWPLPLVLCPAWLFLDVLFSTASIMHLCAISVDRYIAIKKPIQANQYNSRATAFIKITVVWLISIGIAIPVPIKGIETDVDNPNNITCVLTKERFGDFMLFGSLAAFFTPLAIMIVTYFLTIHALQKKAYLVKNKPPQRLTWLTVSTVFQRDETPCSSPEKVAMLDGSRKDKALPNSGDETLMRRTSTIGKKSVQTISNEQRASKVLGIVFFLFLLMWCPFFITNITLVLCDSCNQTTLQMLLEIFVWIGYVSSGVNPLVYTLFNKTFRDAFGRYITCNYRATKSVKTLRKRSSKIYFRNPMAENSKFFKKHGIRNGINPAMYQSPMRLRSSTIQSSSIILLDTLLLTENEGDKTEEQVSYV
T5 sequence (P35367 whole entry): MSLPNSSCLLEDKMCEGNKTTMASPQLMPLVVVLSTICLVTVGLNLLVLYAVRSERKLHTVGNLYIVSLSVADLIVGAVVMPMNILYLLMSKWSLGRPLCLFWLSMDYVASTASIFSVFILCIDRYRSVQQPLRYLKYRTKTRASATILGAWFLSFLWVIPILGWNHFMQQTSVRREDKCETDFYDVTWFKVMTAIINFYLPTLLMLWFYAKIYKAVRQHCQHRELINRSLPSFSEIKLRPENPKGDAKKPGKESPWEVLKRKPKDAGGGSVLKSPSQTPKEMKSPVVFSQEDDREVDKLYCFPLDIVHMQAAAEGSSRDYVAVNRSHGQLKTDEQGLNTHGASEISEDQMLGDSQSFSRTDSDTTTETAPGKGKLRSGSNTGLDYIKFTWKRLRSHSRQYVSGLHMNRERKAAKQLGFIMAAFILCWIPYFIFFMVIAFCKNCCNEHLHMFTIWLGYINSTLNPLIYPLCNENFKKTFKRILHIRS
T2 sequence (P25021 whole entry): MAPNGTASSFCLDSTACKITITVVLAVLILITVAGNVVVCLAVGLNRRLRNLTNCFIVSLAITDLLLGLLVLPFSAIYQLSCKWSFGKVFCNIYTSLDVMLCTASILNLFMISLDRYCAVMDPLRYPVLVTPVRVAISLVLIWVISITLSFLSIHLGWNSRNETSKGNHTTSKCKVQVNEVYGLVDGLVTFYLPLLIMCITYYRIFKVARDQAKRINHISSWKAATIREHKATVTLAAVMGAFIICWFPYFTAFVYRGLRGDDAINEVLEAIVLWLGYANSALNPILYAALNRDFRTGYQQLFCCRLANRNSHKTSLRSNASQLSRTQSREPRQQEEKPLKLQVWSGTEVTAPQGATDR
T7 sequence (P34969 whole entry): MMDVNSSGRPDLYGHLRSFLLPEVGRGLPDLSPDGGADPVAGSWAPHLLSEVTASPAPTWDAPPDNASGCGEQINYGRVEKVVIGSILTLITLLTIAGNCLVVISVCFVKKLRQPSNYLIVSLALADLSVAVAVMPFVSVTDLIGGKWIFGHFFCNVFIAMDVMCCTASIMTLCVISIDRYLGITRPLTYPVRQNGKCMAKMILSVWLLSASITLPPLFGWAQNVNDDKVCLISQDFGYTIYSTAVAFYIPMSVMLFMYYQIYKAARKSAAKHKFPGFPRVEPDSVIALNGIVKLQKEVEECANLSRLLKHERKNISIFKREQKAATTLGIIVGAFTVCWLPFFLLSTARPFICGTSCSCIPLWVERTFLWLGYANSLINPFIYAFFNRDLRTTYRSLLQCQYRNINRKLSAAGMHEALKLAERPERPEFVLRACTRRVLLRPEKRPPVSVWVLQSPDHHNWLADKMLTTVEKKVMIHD

SMILES | anxiolytic (tranquilizing) action in elevated plus maze (male mice of BALB/c line [1]) | memory disorders caused by Scopolamine in Morris water maze (mice) | enhancement of memory disturbed by Scopolamine (passive avoidance) (male mice of BALB/c line [2]) | α-Adrenoceptor α1D, % inhibition (human α1D receptor) [%] | Histamine receptor H2, % inhibition (human H2 receptor) [%] | nH 5-HT2B [3] | IC50 ([3]; read-out: IC50 5-HT2B) [nM] | Ki ([3]; read-out: Ki 5-HT2B) [nM] | IC50 [4] [nM] | Ki [4] [nM] | nH 5-HT6 [4] | Histamine receptor H1, % inhibition (human H1 receptor) [%] | imidazoline I2 receptor % inhibition (imidazoline receptor I2) [%] | IC50 [5] [nM] | Ki [5] [nM] | nH 5-HT2A [5] | inhibition at 1 µM (human 5-HT7 receptor) [%]
Cc1ccc2c(c1)c1c(n2CCc2ccc(C)nc2)CCN(C)C1.Cl.Cl [1.1.2(4-2)] | analogous action | decreasing memory disorders coused by Scopalomine | improve memory | – | – | – | – | – | – | – | – | – | – | – | – | – | –
Cc1ccc(S(=O)(=O)n2c3c(c4cc(C)ccc42)CN(C)CCC3)cc1.Cl [1.8.1(3)•HCl] | – | – | – | 55 | 82 | 0.784 | 319 | 203 | 34.8 | 15.9 | 1.07 | 95 | 17 | 22.5 | 6.43 | 1.01 | 99
